Tested on: Adult rat DRG neurons
Experiment: Measurement of gene expression in adult DRG neurons by real-time PCR
Type: cell-based
Procedure: Dorsal root ganglia were dissected from adult (3-6 months old) Sprague-Dawley rats, and dissociated and cultured by standard techniques (Lindsay, 1988). Briefly, ganglia were stripped of their sheaths, and incubated in 0.125% collagenase type IV (Worthington) in Ham's F12 with 10% HIHS for two 90 minute periods at 37° C. They were then washed extensively and incubated in 0.25% trypsin (Worthington) in HBSS at 37 degrees for 30 minutes. After inactivation of trypsin with 10% heat inactivated horse serum and further washing, the ganglia were dissociated by gentle trituration through a flame polished Pasteur pipet.
Neurons were plated on polyornithine and laminin coated 96-well plates in defined serum free medium consisting of Hams F-14 nutrient mixture with plus 2 mM glutamine, 0.35% bovine serum albumin (Albumax II, Gibco-BRL or Pathocyte-5, ICN), 60 ng/ml progesterone, 16 ug/ml putrescine, 400 ng/ml L-thyroxine, 38 ng/ml sodium selenite, 340 ng/ml tri-iodo-thyronine, 60 ug/ml penicillin and 100 ug/ml streptomycin (Sigma) (Davies et al., 1993). NGF (10 ng/ml) and test compounds were added to the wells shortly before or after plating as described below.
Adult rat DRG neurons were plated in 96 well plates, exposed to different concentrations of NGF for 120 hours and specific mRNA expression was analysed using the Stratagene Mx4000 real time PCR instrument. These conditions allow detection of greater than 15-fold increase in substance P mRNA content relative to GAPDH mRNA at the highest concentration of NGF used (FIG. 1). In addition, it was shown that a greater than 3-fold reduction in galanin mRNA level relative to GAPDH mRNA at the highest concentration of NGF can be measured (FIG. 1).
After culture as described above for 5 days RNA was extracted and the ratio of substance P mRNA expression determined relative to GAPDH mRNA for RNA from each of the culture wells by RT-PCR. RT-PCR was also performed to determine the ratio of galanin to GAPDH mRNA for each RNA sample. […]

NGF: nerve growth factor, the first neurotrophin identified; acts through TrkA and p75 receptors
reduction in galanin mRNA level relative to GAPDH mRNA (highest concentration of NGF (range up to 50 ng/ml), 120 hours exposure, relative to cultures with no added NGF (FIG. 1)): greater than 3 fold
increase in substance P mRNA content relative to GAPDH mRNA (highest concentration of NGF used (range up to 50 ng/ml), 120 hours exposure, 96 well plates, relative to cultures with no added NGF (FIG. 1)): greater than 15 fold
combined difference in gene expression (substance P and galanin combined in a single assay) in the absence or presence of NGF (substance P mRNA relative to galanin mRNA, 120 hours exposure (FIG. 1)): approximately 50 fold
